For one experiment, the target named is T1, CFR1R receptor (Homo sapiens, UniProt P34998).
T1 construct: host or cells: CHO-K1 (clone 2)
T1 sequence (P34998 24-415): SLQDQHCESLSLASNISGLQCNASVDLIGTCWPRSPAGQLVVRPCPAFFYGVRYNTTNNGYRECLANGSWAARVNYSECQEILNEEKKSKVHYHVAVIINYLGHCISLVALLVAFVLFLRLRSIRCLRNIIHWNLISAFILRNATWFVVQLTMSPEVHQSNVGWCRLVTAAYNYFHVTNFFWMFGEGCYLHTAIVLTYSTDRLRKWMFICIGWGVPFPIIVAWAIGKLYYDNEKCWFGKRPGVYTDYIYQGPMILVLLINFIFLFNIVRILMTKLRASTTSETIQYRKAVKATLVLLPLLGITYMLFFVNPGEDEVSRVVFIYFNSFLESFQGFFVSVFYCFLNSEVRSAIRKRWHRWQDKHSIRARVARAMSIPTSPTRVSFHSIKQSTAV
In words: Activity at anti-target CFR1R receptor, cAMP assay in CRF1R-overexpression CHO-K1 cells. The conditions noted are these: 100% = Sauvagine at 100 nM; for EC50: cAMP. It counts as cell-based. Summed up: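 cAMP readout in CRF1R-overexpressing CHO-K1 cells (clone 2), run as for the TeloHAEC assay at 4000 cells/well final. Cells came from cryopreserved banks. Sauvagine at 100 nM defined 100% activation.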

The target in the next experiment is T2, human CRF2a receptor (Homo sapiens, UniProt Q13324).
T2 construct: expressed in transfected cells; host or cells: TeloHEAC cells
T2 sequence (Q13324 1-411): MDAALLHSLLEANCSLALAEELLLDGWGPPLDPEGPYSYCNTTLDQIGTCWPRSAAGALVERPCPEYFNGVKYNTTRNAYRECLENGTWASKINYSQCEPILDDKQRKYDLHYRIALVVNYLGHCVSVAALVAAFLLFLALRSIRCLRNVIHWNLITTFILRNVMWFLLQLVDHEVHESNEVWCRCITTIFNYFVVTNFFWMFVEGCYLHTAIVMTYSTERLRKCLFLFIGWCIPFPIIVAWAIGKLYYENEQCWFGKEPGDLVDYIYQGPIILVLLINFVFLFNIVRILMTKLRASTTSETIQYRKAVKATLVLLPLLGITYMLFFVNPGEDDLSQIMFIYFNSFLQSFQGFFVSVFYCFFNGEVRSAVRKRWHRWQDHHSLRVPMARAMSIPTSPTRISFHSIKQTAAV
Description: Activity at human CRF2a receptor, cAMP functional assay in TeloHEAC cells. It counts as cell-based. The conditions noted are these: TeloHEAC cells stably expressing human CRF2a receptor, relative to urocortin 2 (100 nM = 100%). In a few lines:
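cAMP accumulation was measured by HTRF 665/620 nm ratio after 30 min at 37° C compound exposure (16 twofold dilutions) of CRF2a-expressing TeloHEAC cells, 10000/well, in HEPES-buffered HBSS plus IBMX. Activity was normalised to urocortin 2 at 100 nM (100%), and EC50 was the concentration giving half-maximal activation.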

*1 amine or outer side, *2 acyl side, *3 side chain or, on linkers, in order; H or OH if unused. Where a SMILES comes first, the peptide text is derived from it. Side-chain parts run from the residue outwards. [ ]: non-standard residue; d: D form. The star is where a group is joined. C18 diacid = O=C(O)CCCCCCCCCCCCCCCCC(=O)*; γGlu = O=C(O)[C@H](CCC(=O)[*:2])N[*:1]; C14 diacid = O=C(O)CCCCCCCCCCCCC(=O)*; NMeI = CC[C@H](C)[C@H](NC)C(=O)O; Api = NC1(C(=O)O)CCNCC1; Dap = NC[C@H](N)C(=O)O; AEEA = NCCOCCOCC(=O)O; Aib = CC(C)(N)C(=O)O

What is called EC50 is the concentration at which the effect is half-maximal. High values mean lower potency in that assay, low ones higher potency in that assay. For `CC[C@H](C)[C@H](NC)C(=O)N[C@H](C(=O)N[C@@H](CC(C)C)C(=O)N[C@@H](CO)C(=O)N[C@@H](CC(C)C)C(=O)N[C@@H](CC(=O)O)C(=O)N[C@@H](C(=O)N1CCC[C@H]1C(=O)N[C@H](C(=O)N[C@@H](CCCCN)C(=O)N[C@@H](CC(C)C)C(=O)N[C@@H](CCCCNC(=O)COCCOCCNC(=O)COCCOCCNC(=O)CC[C@H](NC(=O)CCCCCCCCCCCCC(=O)O)C(=O)O)C(=O)N[C@@H](CCCCN)C(=O)N[C@H](C(=O)N[C@@H](CC(C)C)C(=O)N[C@@H](CC(C)C)C(=O)N[C@@H](CCC(=O)O)C(=O)N[C@@H](CCC(N)=O)C(=O)N[C@@H](CCC(=O)O)C(=O)N[C@@H](CCCCN)C(=O)N[C@@H](CCC(N)=O)C(=O)N[C@@H](CCCCN)C(=O)N[C@@H](CCCCN)C(=O)N[C@@H](CCC(N)=O)C(=O)N[C@@H](CCCNC(=N)N)C(=O)N[C@@H](CCC(=O)O)C(=O)N[C@@H](CCC(N)=O)C(=O)N[C@@H](C)C(=O)N[C@@H](CCC(=O)O)C(=O)N[C@H](C(=O)N[C@@H](CC(N)=O)C(=O)NC(C)(C)C(=O)N[C@@H](CCC(N)=O)C(=O)N[C@H](C(=O)N[C@@H](CC(C)C)C(=O)N[C@@H](C)C(=O)N[C@@H](CCC(N)=O)C(=O)N[C@H](C(N)=O)C(C)C)[C@@H](C)CC)[C@@H](C)O)[C@@H](C)CC)[C@@H](C)CC)C(C)C)C(C)C` [compound 178] (H-[NMeI]VLSLD[dV]PIKLK([AEEA-AEEA-γGlu-C14 diacid])KILLEQEKQKKQREQAETN[Aib]QILAQV-NH2), at CFR1R receptor, the “Emax (% I)” value came to 1 % I and the EC50 is > 250 nM. Also, the EC50 at human CRF2a receptor amounted to 6.5 nM.
The matching figures for `CC[C@H](C)[C@H](NC(C)=O)C(=O)N[C@H](C(=O)N[C@@H](CC(C)C)C(=O)N[C@@H](CO)C(=O)N[C@@H](CC(C)C)C(=O)N[C@@H](CC(=O)O)C(=O)N[C@@H](C(=O)N1CCC[C@H]1C(=O)N[C@H](C(=O)N[C@@H](CCCCN)C(=O)N[C@@H](CC(C)C)C(=O)N[C@@H](CCCCNC(=O)COCCOCCNC(=O)COCCOCCNC(=O)CC[C@H](NC(=O)CCCCCCCCCCCCCCCCC(=O)O)C(=O)O)C(=O)N[C@@H](CCCCN)C(=O)N[C@H](C(=O)N[C@@H](CC(C)C)C(=O)N[C@@H](CC(C)C)C(=O)N[C@@H](CCC(=O)O)C(=O)N[C@@H](CCC(N)=O)C(=O)N[C@@H](CCC(=O)O)C(=O)N[C@@H](CCCCN)C(=O)N[C@@H](CCC(N)=O)C(=O)N[C@@H](CCCCN)C(=O)NC(C)(C)C(=O)N[C@@H](CCC(N)=O)C(=O)N[C@@H](CCCNC(=N)N)C(=O)N[C@@H](CCC(=O)O)C(=O)N[C@@H](CCC(N)=O)C(=O)N[C@@H](C)C(=O)N[C@@H](CCC(=O)O)C(=O)N[C@H](C(=O)N[C@@H](CC(N)=O)C(=O)NC(C)(C)C(=O)N[C@@H](CCC(N)=O)C(=O)N[C@H](C(=O)N[C@@H](CC(C)C)C(=O)N[C@@H](C)C(=O)N[C@@H](CCC(N)=O)C(=O)N[C@H](C(N)=O)C(C)C)[C@@H](C)CC)[C@@H](C)O)[C@@H](C)CC)[C@@H](C)CC)C(C)C)C(C)C` [compound 197] (Ac-IVLSLD[dV]PIKLK([AEEA-AEEA-γGlu-C18 diacid])KILLEQEKQK[Aib]QREQAETN[Aib]QILAQV-NH2): 5 % I, > 250 nM and 1.28 nM.
For the molecule `CC[C@H](C)[C@H](NC(C)=O)C(=O)N[C@H](C(=O)N[C@@H](CC(C)C)C(=O)N[C@@H](CO)C(=O)N[C@@H](CC(C)C)C(=O)N[C@@H](CC(=O)O)C(=O)N[C@@H](C(=O)N1CCC[C@H]1C(=O)N[C@H](C(=O)N[C@@H](CCCCN)C(=O)N[C@@H](CC(C)C)C(=O)N[C@@H](CCCCNC(=O)CC[C@H](NC(=O)CCCCCCCCCCCCCCCCC(=O)O)C(=O)O)C(=O)N[C@@H](CCCCN)C(=O)N[C@H](C(=O)N[C@@H](CC(C)C)C(=O)N[C@@H](CC(C)C)C(=O)N[C@@H](CCC(=O)O)C(=O)N[C@@H](CCC(N)=O)C(=O)N[C@@H](CCC(=O)O)C(=O)N[C@@H](CCCCN)C(=O)N[C@@H](CCC(N)=O)C(=O)N[C@@H](CCCCN)C(=O)N[C@@H](CCCCN)C(=O)N[C@@H](CCC(N)=O)C(=O)N[C@@H](CCCNC(=N)N)C(=O)N[C@@H](CCC(=O)O)C(=O)N[C@@H](CCC(N)=O)C(=O)N[C@@H](C)C(=O)N[C@@H](CCC(=O)O)C(=O)N[C@H](C(=O)N[C@@H](CC(N)=O)C(=O)NC1(C(=O)N[C@@H](CCC(N)=O)C(=O)N[C@H](C(=O)N[C@@H](CC(C)C)C(=O)N[C@@H](C)C(=O)N[C@@H](CCC(N)=O)C(=O)N[C@H](C(N)=O)C(C)C)[C@@H](C)CC)CCNCC1)[C@@H](C)O)[C@@H](C)CC)[C@@H](C)CC)C(C)C)C(C)C` [compound 129] (Ac-IVLSLD[dV]PIKLK([γGlu-C18 diacid])KILLEQEKQKKQREQAETN[Api]QILAQV-NH2), on CFR1R receptor, the “Emax (% I)” value is on record as 39 % I. The same molecule came in with an EC50 on human CRF2a receptor of 0.14 nM.
With `CC[C@H](C)[C@H](NC)C(=O)N[C@H](C(=O)N[C@@H](CC(C)C)C(=O)N[C@@H](CO)C(=O)N[C@@H](CC(C)C)C(=O)N[C@@H](CC(=O)O)C(=O)N[C@@H](C(=O)N1CCC[C@H]1C(=O)N[C@H](C(=O)N[C@@H](CCCCN)C(=O)N[C@@H](CC(C)C)C(=O)N[C@@H](CCCCNC(=O)COCCOCCNC(=O)COCCOCCNC(=O)CC[C@H](NC(=O)CCCCCCCCCCCCCCCCC(=O)O)C(=O)O)C(=O)N[C@@H](CCCCN)C(=O)N[C@H](C(=O)N[C@@H](CC(C)C)C(=O)N[C@@H](CC(C)C)C(=O)N[C@@H](CCC(=O)O)C(=O)N[C@@H](CCC(N)=O)C(=O)N[C@@H](CCC(=O)O)C(=O)N[C@@H](CCCCN)C(=O)N[C@@H](CCC(N)=O)C(=O)N[C@@H](CCCCN)C(=O)N[C@@H](CCCCN)C(=O)N[C@@H](CCC(N)=O)C(=O)N[C@@H](CCCNC(=N)N)C(=O)N[C@@H](CCC(=O)O)C(=O)N[C@@H](CCC(N)=O)C(=O)N[C@@H](C)C(=O)N[C@@H](CCC(=O)O)C(=O)N[C@H](C(=O)N[C@@H](CC(N)=O)C(=O)N[C@@H](CN)C(=O)N[C@@H](CCC(N)=O)C(=O)N[C@H](C(=O)N[C@@H](CC(C)C)C(=O)N[C@@H](C)C(=O)N[C@@H](CCC(N)=O)C(=O)N[C@H](C(N)=O)C(C)C)[C@@H](C)CC)[C@@H](C)O)[C@@H](C)CC)[C@@H](C)CC)C(C)C)C(C)C` [compound 115] (H-[NMeI]VLSLD[dV]PIKLK([AEEA-AEEA-γGlu-C18 diacid])KILLEQEKQKKQREQAETN[Dap]QILAQV-NH2), at CFR1R receptor, the “Emax (% I)” value worked out at 4 % I and the EC50 is > 250 nM. Also, the EC50 at human CRF2a receptor turned out to be 0.76 nM.

(Values after patent US20260001928A1 (CORTERIA PHARMACEUTICALS, priority 2022, published 2026).)
